Source: patent US6737383B1, “Herbicidal oxadiazolidines” (priority 1999, dated 2004)

What was measured:
morningglory = assay: Test B pre/postemergence morningglory; assay type: in vivo, Ipomoea hederacea; conditions: for Morningglory plant response rating (0 to 10 scale): 0 is no effect
Summary of the method: (§1)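 Test chemicals in a non-phytotoxic solvent mixture with surfactant were sprayed preemergence onto planted seeds and postemergence onto plants 2 to 18 cm tall (1- to 4-leaf stage). After twelve to sixteen days in a greenhouse, injury was visually rated against untreated controls from 0 (no effect) to 10 (complete control).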

crabgrass = assay: Test B pre/postemergence crabgrass; assay type: in vivo, Digitaria sanguinalis; conditions: for Crabgrass plant response rating (0 to 10 scale): 0 is no effect
Summary of the method: as §1

bamyardgrass = assay: Test B flood test barnyardgrass; assay type: in vivo, Echinochloa crus-galli
Summary of the method: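 Plants were grown to the 2-leaf stage before treatment with test chemical, then held in a greenhouse for twelve to sixteen days. Injury was visually rated against untreated controls on a 0–10 scale, where 0 is no effect and 10 is complete control.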

blackgrass = assay: Test B pre/postemergence blackgrass; assay type: in vivo, Alopecurus myosuroides; conditions: for Blackgrass plant response rating (0 to 10 scale): 0 is no effect
Summary of the method: as §1

[1] = Preemergence, Rate 62 g/ha, scale of 0 to 10 where 0 is no effect and 10 is complete control
[2] = Preemergence, Rate 125 g/ha, 10 is complete control
[3] = Preemergence, Rate 250 g/ha, scale 0 to 10, 0 is no effect, 10 is complete control
[4] = Preemergence, Rate 500 g/ha, scale of 0 to 10 where 0 is no effect and 10 is complete control
[5] = Rate 62 g/ha, Postemergence, scale of 0 to 10 where 0 is no effect and 10 is complete control
[6] = Rate 125 g/ha, Postemergence, scale 0 to 10
[7] = Rate 500 g/ha, Postemergence, scale 0 to 10
[8] = Rate 62 g/ha, headed Pre-emergence (flood test species), scale 0 to 10 (0 no effect, 10 complete control)
[9] = Rate 125 g/ha, Pre-emergence, flood test species, scale 0 to 10 where 0 is no effect and 10 is complete control
[10] = Rate 250 g/ha, Pre-emergence, flood-test species, scale 0 to 10, 0 is no effect, 10 is complete control
[11] = Rate 500 g/ha, headed Pre-emergence (flood test species), scale 0 to 10 (0 no effect, 10 complete control)
[12] = Preemergence, Rate 31 g/ha, visual rating, scale 0 to 10 (0 no effect, 10 complete control)
[13] = Preemergence, Rate 250 g/ha, scale of 0 to 10 where 0 is no effect and 10 is complete control
[14] = Rate 31 g/ha, Postemergence, scale 0 to 10
[15] = Rate 125 g/ha, Preemergence, scale of 0 to 10 where 0 is no effect and 10 is complete control
[16] = Rate 500 g/ha, Postemergence, scale 0 to 10, 0 no effect, 10 complete control
[17] = Rate 500 g/ha, Pre-emergence, flood test species, scale 0 to 10 (0 no effect, 10 complete control)
[18] = Rate 125 g/ha, Postemergence, scale of 0 to 10 where 0 is no effect and 10 is complete control
[19] = Rate 250 g/ha, Postemergence, scale of 0 to 10 where 0 is no effect and 10 is complete control

SMILES | Morningglory plant response rating (morningglory; [1]) | Plant response rating, Morningglory (morningglory; [4]) | Morningglory plant response rating (morningglory; [5]) | Morningglory plant response rating (morningglory; [6]) | Plant response rating (0 to 10; 0 is no effect, 10 is complete control), Morningglory (morningglory; Rate 250 g/ha, Postemergence) | Plant response rating, Crabgrass (crabgrass; [4]) | Crabgrass plant response rating (crabgrass; [5]) | Crabgrass plant response rating (crabgrass; [6]) | Plant response rating (0 to 10; 0 is no effect, 10 is complete control), Crabgrass (crabgrass; Rate 250 g/ha, Postemergence) | Barnyardgrass plant response rating (bamyardgrass; [8]) | Barnyardgrass plant response rating (bamyardgrass; [9]) | Barnyardgrass plant response rating (bamyardgrass; [10]) | Blackgrass plant response rating (blackgrass; [1]) | Plant response rating, Blackgrass (blackgrass; [4]) | Blackgrass plant response rating (blackgrass; [5]) | Blackgrass plant response rating (blackgrass; [6]) | Plant response rating (0 to 10; 0 is no effect, 10 is complete control), Blackgrass (blackgrass; Rate 250 g/ha, Postemergence) | Crabgrass plant response rating (crabgrass; [1]) | Morningglory plant response rating (morningglory; [13]) | Morningglory plant response rating (morningglory; [15]) | also measured
CCC(CC)N(C(=O)n1oc(=O)n(-c2ccccc2C)c1=O)c1ccc(F)cc1 [Compound 193] | 0 | 0 | 0 | 0 | 1 | 7 | 0 | 0 | 0 | 0 | 0 | 0 | 0 | 0 | 0 | 0 | 0 |  |  |  | Morningglory plant response rating (0 to 10 scale) (morningglory; [2]): 0; Morningglory plant response rating (morningglory; [3]): 0; Morningglory plant response rating (morningglory; [7]): 2; Crabgrass plant response rating (0 to 10 scale) (crabgrass; [2]): 4; Crabgrass plant response rating (crabgrass; [3]): 6; Crabgrass plant response rating (crabgrass; [7]): 0; Plant response rating, Barnyardgrass (bamyardgrass; [11]): 0; Blackgrass plant response rating (0 to 10 scale) (blackgrass; [2]): 0; Blackgrass plant response rating (blackgrass; [3]): 0; Blackgrass plant response rating (blackgrass; [7]): 0
C=CCn1c(=O)on(C(=O)N(c2ccc(F)cc2)C2CCC2)c1=O [Compound 194] | 0 | 0 | 0 | 0 | 1 |  | 0 | 0 | 0 | 0 | 0 | 0 | 0 | 8 | 0 | 0 | 2 | 4 |  |  | Morningglory plant response rating (0 to 10 scale) (morningglory; [2]): 0; Morningglory plant response rating (morningglory; [3]): 0; Morningglory plant response rating (morningglory; [7]): 2; Crabgrass plant response rating (0 to 10 scale) (crabgrass; [2]): 9; Crabgrass plant response rating (crabgrass; [3]): 9; Crabgrass plant response rating (crabgrass; [7]): 2; Plant response rating, Barnyardgrass (bamyardgrass; [11]): 0; Blackgrass plant response rating (0 to 10 scale) (blackgrass; [2]): 2; Blackgrass plant response rating (blackgrass; [3]): 3; Blackgrass plant response rating (blackgrass; [7]): 3
Cc1ccccc1-n1c(=O)on(C(=O)N(c2ccc(Cl)cc2F)C(C)C)c1=O [Compound 195] | 0 | 0 | 0 | 0 | 1 | 9 | 0 | 0 | 2 | 0 | 0 | 0 | 0 | 6 | 0 | 3 | 5 | 3 |  |  | Morningglory plant response rating (0 to 10 scale) (morningglory; [2]): 0; Morningglory plant response rating (morningglory; [3]): 0; Morningglory plant response rating (morningglory; [7]): 3; Crabgrass plant response rating (0 to 10 scale) (crabgrass; [2]): 4; Crabgrass plant response rating (crabgrass; [3]): 5; Crabgrass plant response rating (crabgrass; [7]): 5; Plant response rating, Barnyardgrass (bamyardgrass; [11]): 0; Blackgrass plant response rating (0 to 10 scale) (blackgrass; [2]): 1; Blackgrass plant response rating (blackgrass; [3]): 3; Blackgrass plant response rating (blackgrass; [7]): 6
CCCCn1c(=O)on(C(=O)N(c2ccc(F)cc2)C(C)C)c1=O [Compound 221] | 0 |  | 0 | 0 | 0 |  | 2 | 6 | 8 | 0 | 0 | 0 | 5 |  | 2 | 9 | 9 | 6 | 0 | 0 | Morningglory plant response rating (morningglory; [12]): 0; Morningglory plant response rating (morningglory; [14]): 0; Crabgrass plant response rating (crabgrass; [12]): 2; Crabgrass plant response rating (crabgrass; [13]): 8; Crabgrass plant response rating (crabgrass; [14]): 0; Crabgrass plant response rating (crabgrass; [15]): 8; Barnyardgrass plant response rating (bamyardgrass; Rate 31 g/ha, Pre-emergence section (flood test species), scale 0 to 10): 0; Blackgrass plant response rating (blackgrass; [12]): 5; Blackgrass plant response rating (blackgrass; [13]): 7; Blackgrass plant response rating (blackgrass; [14]): 2; Blackgrass plant response rating (blackgrass; [15]): 7
CC(C)N(C(=O)n1oc(=O)n(CC2(C)COC2)c1=O)c1ccc(F)cc1 [Compound 226] | 0 | 8 | 5 | 7 | 7 | 10 | 0 | 0 | 3 | 0 | 0 | 0 | 10 | 10 | 0 | 5 | 8 | 5 | 7 | 0 | Morningglory plant response rating (morningglory; [16]): 7; Crabgrass plant response rating (crabgrass; [13]): 10; Crabgrass plant response rating (crabgrass; [15]): 9; Crabgrass plant response rating (crabgrass; [16]): 8; Barnyardgrass plant response rating (bamyardgrass; [17]): 0; Blackgrass plant response rating (blackgrass; [13]): 10; Blackgrass plant response rating (blackgrass; [15]): 10; Blackgrass plant response rating (blackgrass; [16]): 9
Cc1ccccc1-n1c(=O)on(C(=O)N(c2ccc(N(C)C)cc2)C(C)C)c1=O [Compound 237] | 0 | 2 | 2 | 2 | 3 | 3 | 0 | 0 | 0 | 0 | 0 | 0 | 0 | 0 | 0 | 0 | 0 | 0 | 0 | 0 | Morningglory plant response rating (morningglory; [16]): 6; Crabgrass plant response rating (crabgrass; [13]): 2; Crabgrass plant response rating (crabgrass; [15]): 0; Crabgrass plant response rating (crabgrass; [16]): 0; Barnyardgrass plant response rating (bamyardgrass; [17]): 0; Blackgrass plant response rating (blackgrass; [13]): 0; Blackgrass plant response rating (blackgrass; [15]): 0; Blackgrass plant response rating (blackgrass; [16]): 0
Cc1ccccc1-n1c(=O)on(C(=O)N(c2ccc(C(C)(C)C)cc2)C(C)C)c1=O [Compound 270] | 0 | 0 |  |  |  | 0 |  |  |  | 0 | 0 | 0 | 0 | 0 | 0 |  |  | 0 | 0 | 0 | Morningglory plant response rating (morningglory; [18]): 0; Plant response rating, Morningglory (morningglory; [19]): 0; Morningglory plant response rating (morningglory; [16]): 0; Crabgrass plant response rating (crabgrass; [13]): 0; Crabgrass plant response rating (crabgrass; [18]): 0; Crabgrass plant response rating (crabgrass; [15]): 0; Plant response rating, Crabgrass (crabgrass; [19]): 0; Crabgrass plant response rating (crabgrass; [16]): 0; Barnyardgrass plant response rating (bamyardgrass; [17]): 0; Blackgrass plant response rating (blackgrass; [13]): 0; Blackgrass plant response rating (blackgrass; [18]): 0; Blackgrass plant response rating (blackgrass; [15]): 0; Plant response rating, Blackgrass (blackgrass; [19]): 0; Blackgrass plant response rating (blackgrass; [16]): 0
